Laboratory results taken from patent publication US20250282764A1, “IMIDAZOLE HETEROCYCLE BASED COMPOUNDS AND METHODS OF TREATING CANCER” (King Abdulaziz University, priority 2024, published 2025).
Converted amounts (≈) assume the structure as drawn. Like-named read-outs stand apart in the source and are kept apart here.

How the values were obtained:
[1] = tested on: DLD1; test: CellTiter-Blue cell viability assay, DLD1; format: cell-based, human; conditions: 48 h, 50% cell viability vs untreated, mean of triplicates
Experimental: (§1) Cell culture of colorectal carcinoma cell lines was performed as follows. DLD-1, HCT116, and HT-29 cells were purchased from CLS Cell Line Service GmbH (Eppelheim, Germany) and cultured in Dulbecco's Modified Eagle Medium (DMEM) high glucose, GlutaMAX™ Supplement, pyruvate (Thermo Fisher Scientific, Paisley, UK) supplemented with 10% fetal bovine serum (FBS; Thermo Fisher Scientific), 200 U/mL penicillin, and 200 μg/ml streptomycin (Thermo Fisher Scientific), at 37° C. with 5% CO2 in a humidified incubator.
(§2) The CellTiter®-Blue Cell Viability assay was acquired from Promega Corporation (Madison, WI, USA). Cell viability assay was performed as follows: DLD-1 (4×10^3/well), HCT116 (4×10^3/well), and HT-29 (7×10^3/well) were incubated with a concentration gradient of compound (Id) ranging from 0.01 to 20 μM, in 96-well plates for 48 h at 37° C. Subsequently, 20 μl CellTiter®-Blue Cell Viability reagent was added to each well and incubated for an additional 2 h for the development of fluorescence. The fluorescence emission was measured at 590 nm using a SpectraMax® i3× Multi-Mode microplate reader (Molecular Devices, LLC, San Jose, CA, USA) and plotted against drug concentrations to determine the mean inhibitory concentration of compound (Id) producing 50% decrease in cell viability (IC50). Experiments were performed in triplicates.

[2] = tested on: HCT116; test: CellTiter-Blue cell viability assay, HCT116; format: cell-based, human; conditions: 50% cell viability vs untreated, mean of triplicates
Experimental: as §1, §2

[3] = tested on: K562; test: CellTiter-Blue cell viability assay, K562; format: cell-based, human; conditions: 48 h, mean of triplicates
Experimental: Cell culture of leukemia cell lines model was performed as follows. HL60, K562, and NB4 cell lines were purchased from CLS Cell Line Service GmbH (Eppelheim, Germany). MV4-11 cell line was purchased from American Type Culture Collection (ATCC; Virginia, USA). KG1α also referred to as KG1a was a gift from Prof. Ghulam Mufti (King College London, UK). Kasumi-1 cell line was purchased from Nawah Scientific (Cairo, Egypt). All cell lines were cultured in Roswell Park Memorial Institute-1640 (RPMI-1640) culture medium supplemented with 10% fetal bovine serum (FBS) (Thermo Fisher Scientific) and 0.1% ciprofloxacin (10 μg/ml; Cipla Limited; Mumbai, India). Cells were maintained in a humidified incubator at 37° C. with 5% CO2.
Cell viability was determined using the CellTiter-Blue® Cell Viability Assay kit (Promega, Madison, WI, USA). Approximately […] were plated in 96 well plate in the presence of increasing drug concentration in triplicate and incubated for 48 h at 37° C. in a humidified incubator. After the incubation period, 20 μL of the cell titer blue reagent was added to each well and the plate was incubated for additional 2 h for the development of florescence. Florescence was measured at 540Ex/590Em on SpectraMax i3 Multi-Mode Microplate Reader (Molecular Devices, LLC; San Jose, CA, USA). […]

[4] = Maximum kinetic aqueous solubility; format: physicochemical; conditions: 2% DMSO/PBS, pH 7.4, read-out: Max. aq. Sol.
Experimental: Solubility assays were performed using Millipore MultiScreen® HTS-PFC Filter Plates designed for solubility assays (EMD Millipore, Billerica, MA). Assays were run in triplicate. The 96-well plates consist of two chambers separated by a filter. Liquid handling was performed using JANUS® Verispan and MTD workstations (Perkin Elmer, Waltham, MA). 4 μL of compound (Id) solution (10 mM in DMSO) was added to 196 μL of phosphate buffer (45 mM potassium phosphate, 45 mM sodium acetate, 45 mM ethanolamine, pH=7.4) in the top chamber to give a final DMSO concentration of 2% and a theoretical drug concentration of 200 μM. Plates were gently shaken for 90 min and then subjected to vacuum. Insoluble drug was captured on the filter. 160 μL of the filtrate was transferred to 96-well Griener UV Star® analysis plates (Sigma-Aldrich, St. Louis, MO) containing 40 μL of acetonitrile. The test compound concentration in the filtrates was measured by UV absorbance on a SpectraMax® Plus microplate reader (Molecular Devices, Sunnyvale, CA) using Softmax Pro software v.5.4.5. Absorbances at 5 wavelengths (280, 300, 320, 340, and 360 nm) were summed to generate the UV signal. Standard curves were generated by adding 4 μL of five concentrations of test compound in DMSO to 40 μL of acetonitrile in UV Star plates followed by 156 μL of the appropriate solubility medium. Analysis and statistics were performed using GraphPad® Prism v.5.04. Data were reported as the maximum concentration observed in the filtrate.

[5] = Binding to mouse plasma proteins (equilibrium dialysis); format: in vitro ADME
Experimental: Binding to mouse plasma proteins was determined as follows. The equilibrium dialysis method for determining plasma protein binding was performed using 96-well dialyzer plates with molecular weight cutoff of 5K (Harvard Apparatus, Holliston, MA) and a dual-plate rotator set to maximum speed (Harvard Apparatus, Holliston, MA) located in a 37° C. incubator with a 10% CO2-atmospheric environment. Assays were run in triplicate. The test compound was added to CD-1 mouse plasma (Innovative Research, Novi, MI, sodium heparin added as anticoagulant; pH adjusted to 7.4 with 2N HCl on day of use) in DMSO (final DMSO concentration 0.4%) to give 10 μM final concentration. Drug/plasma mixture and buffer (Dulbecco's phosphate-buffered saline 1× without calcium and magnesium, Mediatech, Inc., Herndon, VA) were placed in their respective sides, wells were capped, and the plate was placed in the rotator and allowed to dialyze for 22 h. […] Concentrations of analyte from each side of the dialysis plate were determined by LC/MS/MS on a Waters Xevo TQ instrument as described above using positive electrospray ionization. […] The fraction unbound was calculated by dividing the drug concentration in the buffer side of the dialysis plate by the drug concentration in the plasma side.

[6] = tested on: CYP450 metabolizing enzymes (3A4, 2D6, and 2C9); conditions: previous study; cited from earlier work

| SMILES | IC50 ([1]; Homo sapiens, DLD-1) | IC50 ([2]; 48 h) | IC50 ([2]; Homo sapiens, HCT-116, 48 h) | IC50 ([3]; Homo sapiens, K562) | solubility kinetic at 90 min [4] | solubility kinetic at 90 min ([4]; phosphate buffer with 2% DMSO, aqueous buffer, kinetic from dmso stock) | fraction unbound at 22 h, 10 μM ([5]; CD-1, mouse, plasma, pH 7.4, equilibrium dialysis 22 h, read-out: Mouse PPB (% free)) | IC50 [1] | IC50 [3] | Mouse PPB (% free) ([5]; 10 μM, equilibrium dialysis 22 h) | substrate for major CYP450 metabolizing enzymes (3A4, 2D6, and 2C9) [6] |
| --- | --- | --- | --- | --- | --- | --- | --- | --- | --- | --- | --- |
| CC1=N/C(=C\c2ccc(C)o2)C(=O)N1c1ccc(CC(=O)NCc2ccccc2)cc1 [Compound (Id), 2-Methyl-4-(5-methyl-2-furyl)methylene-1-[4-(benzylaminocarbonylmethyl)phenyl]-5-oxo-1H-imidazole] | 1.35 µM | 1.46 µM | 1.46 µM | 0.437 µM | 79.8 µM (≈ 33 µg/mL) | 79.8 µM (≈ 33 µg/mL) | 0.032 | – | – | – | – |
| COc1ccc(/C=C2\N=C(C)N(c3ccc(CC(=O)NCc4ccccc4)cc3)C2=O)cc1 [KIM-161, reference compound] | – | 1.77 µM | – | – | 19.9 µM (≈ 8.75 µg/mL) | – | – | 1.73 µM | 0.282 µM | 5% | not a substrate |
